# Data taken from the NIST ThermoML archive (doi:10.1021/je700406p).
# ± gives the expanded uncertainty stated by the source.
# Experiment: wn = mass fraction of the nth substance listed
# Conditions: Liquid, Vibrating tube method
smiles,measurement,setting,value
CC(C)(N)CO [2-amino-2-methylpropan-1-ol] + O,mass density,"333.05 K, 14990 kPa, w1 = 0.4002",976.2 ± 0.9 kg/m3
same,mass density,"333.05 K, 15984 kPa, w1 = 0.4002",976.6 ± 0.9 kg/m3
same,mass density,"333.05 K, 16990 kPa, w1 = 0.4002",977 ± 0.9 kg/m3
same,mass density,"333.05 K, 18003 kPa, w1 = 0.4002",977.4 ± 0.9 kg/m3
same,mass density,"333.05 K, 18986 kPa, w1 = 0.4002",977.8 ± 0.9 kg/m3
same,mass density,"333.05 K, 19988 kPa, w1 = 0.4002",978.2 ± 0.9 kg/m3
same,mass density,"333.05 K, 21502 kPa, w1 = 0.4002",978.8 ± 0.9 kg/m3
same,mass density,"342.91 K, 1020 kPa, w1 = 0.2821",969 ± 0.6 kg/m3
same,mass density,"342.91 K, 2011 kPa, w1 = 0.2821",969.5 ± 0.6 kg/m3
same,mass density,"342.91 K, 3009 kPa, w1 = 0.2821",969.9 ± 0.6 kg/m3
same,mass density,"342.91 K, 4010 kPa, w1 = 0.2821",970.3 ± 0.6 kg/m3
same,mass density,"342.91 K, 4994 kPa, w1 = 0.2821",970.8 ± 0.6 kg/m3
same,mass density,"342.91 K, 5994 kPa, w1 = 0.2821",971.2 ± 0.6 kg/m3
same,mass density,"342.91 K, 7035 kPa, w1 = 0.2821",971.6 ± 0.6 kg/m3
same,mass density,"342.91 K, 7995 kPa, w1 = 0.2821",972 ± 0.6 kg/m3
same,mass density,"342.91 K, 8990 kPa, w1 = 0.2821",972.4 ± 0.6 kg/m3
same,mass density,"342.91 K, 9998 kPa, w1 = 0.2821",972.9 ± 0.6 kg/m3
same,mass density,"342.91 K, 10992 kPa, w1 = 0.2821",973.3 ± 0.6 kg/m3
same,mass density,"342.91 K, 11994 kPa, w1 = 0.2821",973.7 ± 0.6 kg/m3
same,mass density,"342.91 K, 12992 kPa, w1 = 0.2821",974.1 ± 0.6 kg/m3
same,mass density,"342.91 K, 13990 kPa, w1 = 0.2821",974.5 ± 0.6 kg/m3
same,mass density,"342.91 K, 14992 kPa, w1 = 0.2821",974.9 ± 0.6 kg/m3
same,mass density,"342.91 K, 15993 kPa, w1 = 0.2821",975.4 ± 0.6 kg/m3
same,mass density,"342.91 K, 16987 kPa, w1 = 0.2821",975.8 ± 0.6 kg/m3
same,mass density,"342.91 K, 17985 kPa, w1 = 0.2821",976.2 ± 0.6 kg/m3
same,mass density,"342.91 K, 18987 kPa, w1 = 0.2821",976.6 ± 0.6 kg/m3
same,mass density,"342.91 K, 19984 kPa, w1 = 0.2821",977 ± 0.6 kg/m3
same,mass density,"342.91 K, 20986 kPa, w1 = 0.2821",977.4 ± 0.6 kg/m3
same,mass density,"342.92 K, 509 kPa, w1 = 0.1997",971.6 ± 0.5 kg/m3
same,mass density,"342.92 K, 1001 kPa, w1 = 0.1997",971.8 ± 0.5 kg/m3
same,mass density,"342.92 K, 1008 kPa, w1 = 0.4976",953.4 ± 1.2 kg/m3
same,mass density,"342.92 K, 2000 kPa, w1 = 0.1997",972.2 ± 0.5 kg/m3
same,mass density,"342.92 K, 2004 kPa, w1 = 0.4976",953.8 ± 1.2 kg/m3
same,mass density,"342.92 K, 3000 kPa, w1 = 0.1997",972.7 ± 0.5 kg/m3
same,mass density,"342.92 K, 3006 kPa, w1 = 0.4976",954.3 ± 1.2 kg/m3
same,mass density,"342.92 K, 4000 kPa, w1 = 0.1997",973.1 ± 0.5 kg/m3
same,mass density,"342.92 K, 4000 kPa, w1 = 0.4976",954.8 ± 1.2 kg/m3
same,mass density,"342.92 K, 4997 kPa, w1 = 0.4976",955.3 ± 1.2 kg/m3
same,mass density,"342.92 K, 5000 kPa, w1 = 0.1997",973.6 ± 0.5 kg/m3
same,mass density,"342.92 K, 5996 kPa, w1 = 0.4976",955.7 ± 1.2 kg/m3
same,mass density,"342.92 K, 6000 kPa, w1 = 0.1997",974 ± 0.5 kg/m3
same,mass density,"342.92 K, 6996 kPa, w1 = 0.4976",956.2 ± 1.2 kg/m3
same,mass density,"342.92 K, 7001 kPa, w1 = 0.1997",974.4 ± 0.5 kg/m3
same,mass density,"342.92 K, 7993 kPa, w1 = 0.4976",956.7 ± 1.2 kg/m3
same,mass density,"342.92 K, 8000 kPa, w1 = 0.1997",974.8 ± 0.5 kg/m3
same,mass density,"342.92 K, 8988 kPa, w1 = 0.4976",957.2 ± 1.2 kg/m3
same,mass density,"342.92 K, 9009 kPa, w1 = 0.1997",975.2 ± 0.5 kg/m3
same,mass density,"342.92 K, 9983 kPa, w1 = 0.4976",957.6 ± 1.2 kg/m3
same,mass density,"342.92 K, 10002 kPa, w1 = 0.1997",975.6 ± 0.5 kg/m3
same,mass density,"342.92 K, 10990 kPa, w1 = 0.4976",958.1 ± 1.2 kg/m3
same,mass density,"342.92 K, 11001 kPa, w1 = 0.1997",976 ± 0.5 kg/m3
same,mass density,"342.92 K, 12000 kPa, w1 = 0.1997",976.5 ± 0.5 kg/m3
same,mass density,"342.92 K, 12003 kPa, w1 = 0.4976",958.5 ± 1.3 kg/m3
same,mass density,"342.92 K, 12992 kPa, w1 = 0.4976",958.9 ± 1.3 kg/m3
same,mass density,"342.92 K, 13000 kPa, w1 = 0.1997",976.9 ± 0.5 kg/m3
same,mass density,"342.92 K, 13996 kPa, w1 = 0.4976",959.4 ± 1.3 kg/m3
same,mass density,"342.92 K, 14000 kPa, w1 = 0.1997",977.3 ± 0.5 kg/m3
same,mass density,"342.92 K, 14988 kPa, w1 = 0.4976",959.9 ± 1.3 kg/m3
same,mass density,"342.92 K, 15002 kPa, w1 = 0.1997",977.7 ± 0.5 kg/m3
same,mass density,"342.92 K, 15995 kPa, w1 = 0.4976",960.3 ± 1.3 kg/m3
same,mass density,"342.92 K, 16002 kPa, w1 = 0.1997",978.2 ± 0.5 kg/m3
same,mass density,"342.92 K, 16984 kPa, w1 = 0.4976",960.8 ± 1.3 kg/m3
same,mass density,"342.92 K, 17001 kPa, w1 = 0.1997",978.6 ± 0.5 kg/m3
same,mass density,"342.92 K, 17995 kPa, w1 = 0.4976",961.2 ± 1.3 kg/m3
